Test results: patent US8716183B2, “Control of aquatic weeds with endothall and ALS-inhibiting agent” (SePro Corporation, priority 2008, dated 2014)

Experiments:
hydrilla [1] = assay: Penoxsulam+endothall under static exposure to hydrilla, GR50 and Isobole analysis; type: in vivo, Hydrilla verticillata; conditions: harvested 55 days after treatment, n = 3, endothall as a.e., combinations as total ppb
Source text: (§1) Single apical meristems of hydrilla, collected from Florida, were planted into small pots (13.5 cm length×3.75 cm diameter) containing Wallace Farm® topsoil amended with 14-14-14 slow release Osmocote® fertilizer (˜2.5 g Osmocote/kg soil) on 18 Jul. 2008. Approximately 5 to 7 cm of the apical section extended above the sediment at planting, and a sand cap was placed over the potting soil (˜2 cm deep). Plants were then transferred to a 12 L acrylic tanks filled with well water. Tanks were maintained in a growth room with 14:10 h photoperiod at 26° C. Plants were allowed to establish growth for 14 days before treatment.
(§2) Treatments were replicated three times in a completely randomized design. […] All concentrations are expressed as a.e. for endothall.
All above ground biomass was harvested 55 days after treatment. Biomass was dried to constant moisture at 70° C., and dry weights were determined. Data were subjected to regression analysis using Sigma Plot software, and a GR50 was determined (concentration causing a 50% reduction in dry weight). All data were analyzed for synergism/antagonism using the Isobole analysis at the 95% confidence level (estimated using linear interpolation from 95% confidence bands) (Berenbaum, M. C. 1989, Pharmacological Reviews. 41:93-141; Streibig, J. C. 2003, Assessment of herbicide effects: http://www.ewrs.org/et/images/, Herbicide interaction.pdf). […]

hydrilla [2] = assay: Penoxsulam+endothall under multiple exposures to hydrilla, dry weight and Colby analysis; type: in vivo, Hydrilla verticillata; conditions: for Mean dry weight of hydrilla: penoxsulam 0.02, endothall 0.68 mg/L a.e.; for OBSERVED RESPONSE: penoxsulam 0.02, endothall 0.68 mg/L; for hydrilla biomass compared to untreated controls (LSD, p = 0.05): penoxsulam 0.02 or endothall 0.68 mg/L a.e. alone, 3 to 48 day exposures
Source text: Apical sections (12 to 15 cm in length) of hydrilla, collected from Florida, were planted into small pots (13.5 cm length×3.75 cm diameter) containing Wallace Farm® topsoil amended with 14-14-14 slow release Osmocote® fertilizer (˜2.5 g Osmocote/kg soil) on 16 Oct. 2008. Approximately 5 to 7 cm of the apical section extended above the sediment at planting, and a sand cap was placed over the potting soil (˜2 cm deep). Plants were then transferred to a 12 L acrylic tanks filled with well water. Tanks were maintained in a growth room with 14:10 h photoperiod at 26° C. Plants were allowed to grow for 8 days before the following treatments were initiated in triple replicate: • A) Untreated controls • B) Penoxsulam at 0.02 mg/L • C) Endothall at 0.68 mg/L a.e. • D) Simultaneous treatment • a. Penoxsulam 0.02 mg/L+endothall at 0.68 mg/L • i. Exposure times • 1. 3 days • 2. 6 days • 3. 12 days • 4. 24 days • 5. 48 days (static) • E) Sequential treatment • a. Penoxsulam 0.02 mg/L, add 0.68 mg/L endothall 24 days later—static exposure to combination • b. Endothall at 0.68 mg/L, add 0.02 mg/L penoxsulam 24 days later—static exposure to combination • c. Penoxsulam 0.02 mg/L, add 0.68 mg/L endothall 12 days later—12 day exposure to combination • d. Endothall at 0.68 mg/L, add 0.02 mg/L penoxsulam 12 days later—12 day exposure to combination • e. Penoxsulam 0.02 mg/L, add 0.68 mg/L endothall 6 days later—6 day exposure to combination • f. Endothall at 0.68 mg/L, add 0.02 mg/L penoxsulam 6 days later—6 day exposure to combination
Endothall was formulated as Aquathol K® (4.23 #/gallon dipotassium salt, or 3#/gallon a.e.); penoxsulam was formulated as Galleon SC® (2#/gallon active ingredient). All concentrations are expressed as a.e. for endothall. At each exposure time, plants were removed from treatments and placed in a tank with fresh water containing no herbicide (including controls) to remove the aqueous exposure and allow for recovery.
Plants were harvested at 48 days after initial treatment. At harvest, plants were rinsed free of algae and placed in paper sacks in a drying oven for 4 days at 70° C. temperature. Mean dry weights were determined and means separated using least significant differences. Difference between observed and expected responses was determined to evaluate potential interactions using methods reported by Colby (Colby S. R. 1967. Weeds. 15:20-22).

hydrilla [3] = assay: Imazamox+endothall under static exposure to hydrilla, GR50 and Isobole analysis; type: in vivo, Hydrilla verticillata; conditions: harvested 34 days after treatment, n = 3, endothall as a.e., combinations as total ppb
Source text: as §1, with “on 4 Nov.” for “on 18 Jul.”, “for 10” for “for 14”
as §2
All above ground biomass was harvested 34 days after treatment. Biomass was dried to constant moisture at 70° C., and dry weights were determined. Data were subjected to regression analysis using Sigma Plot software, and a GR50 was determined (concentration causing a 50% reduction in dry weight). All data were analyzed for synergism/antagonism using the Isobole analysis at the 95% confidence level (estimated using linear interpolation from 95% confidence bands) (refer to Example 2 for more information on Isobole analysis).

hydrilla [4] = conditions: cited from earlier work
[5] = test system: hydrilla (Hydrilla verticillata); assay: Field Study 1: hydrilla control in a 6 acre lake divided into three zones; type: in vivo; conditions: 21 days after treatment
Protocol: A 6 acre somewhat rectangular-shaped lake was divided into three 2 acre zones for this testing. A 2-acre test site (Zone 1), located on the northern one-third of the lake, was treated with a penoxsulam plus endothall combination in order to evaluate control of the exotic aquatic weed, hydrilla (Hydrilla verticillata). Within a 50 gallon spray tank system powered by a 5.5 Hp Honda motor, 0.523 gallons Galleon SC (a commercially available penoxsulam formulation) and 12.7 gallons Aquathol K (a commercially available endothall formulation) were added to 36.78 gallons of water. The herbicide combination mixture delivered an application dose of 15 parts per billion penoxsulam and 0.71 ppm a.e. endothall to Zone 1. This herbicide mixture was evenly injected using a trailing hose over the airboat bow throughout the 2 acre Zone 1. On the day of treatment, Zone 1 contained approximately 90% hydrilla coverage, with growth near or at the water surface.
The remaining 4 acres (both Zone 2 (central one-third) and Zone 3 (southern one-third)) of the lake were treated with 15 ppb penoxsulam alone on the same day. Both Zones 2 and 3 contained approximately 90-95% hydrilla coverage at that time.
Twenty one days following the initial treatment, the hydrilla was assessed for herbicidal injury within Zones 1, 2, and 3. […] Approximately 10% of the original plant volume remained near the water's surface; the balance had fallen to the lake bottom. The same was true for a 1 acre area contiguous down lake to Zone 1 moving into Zone 2. All remaining hydrilla plants suspended in the water column within the 3 acres were expressing severe injury.
On this date, 0.71 ppm a.e. endothall (12.7 gallons Aquathol K) was applied to Zone 3 in order to evaluate contact herbicidal efficacy 21 days following a penoxsulam treatment.

[6] = 3-d exposure, harvested 48 days after initial treatment, n = 3
[7] = 6-d exposure (f/b: second agent added 6 days later, 6 day exposure to combination), harvested at 48 days
[8] = 12-d exposure (f/b: second agent added 12 days later, 12 day exposure to combination), harvested at 48 days
[9] = 24-d exposure (f/b: second agent added 24 days later, static exposure to combination), harvested at 48 days
[10] = 48-d (static) exposure, harvested at 48 days
[11] = Zone 3 and southern portion of Zone 2, 15 ppb penoxsulam alone

Row | Structure (SMILES) | GR50 (concentration causing a 50% reduction in dry weight) (hydrilla [1]) | Mean dry weight of hydrilla (hydrilla [2]; [6]) | Mean dry weight of hydrilla (hydrilla [2]; [7]) | Mean dry weight of hydrilla (hydrilla [2]; [8]) | Mean dry weight of hydrilla (hydrilla [2]; [9]) | Mean dry weight of hydrilla (hydrilla [2]; [10]) | OBSERVED RESPONSE (hydrilla [2]; exposure 3 days) | OBSERVED RESPONSE (hydrilla [2]; exposure 6 days) | OBSERVED RESPONSE (hydrilla [2]; exposure 12 days) | OBSERVED RESPONSE (hydrilla [2]; exposure 24 days) | OBSERVED RESPONSE (hydrilla [2]; exposure 48 days) | hydrilla biomass compared to untreated controls (LSD, p = 0.05) (hydrilla [2]) | GR50 (concentration causing a 50% reduction in dry weight) (hydrilla [3]) | hydrilla control (hydrilla [4]; 0.71 ppm a.e. endothall partial area/spot treatment, general) | time before hydrilla plants defoliate and drop toward the lake bottom (hydrilla [4]; 1.4 to 3.5 ppm a.e. endothall, typical, dependent on plant maturity) | contact with hydrilla required to achieve effective control (hydrilla [4]; Netherland et al. 1991) | hydrilla control [5, 11] | hydrilla remaining near the water's surface [5, 11] | herbicidal injury of hydrilla ([5]; Zones 2 and 3, 15 ppb penoxsulam alone) | time before severe injury is expressed (hydrilla [4]; penoxsulam treated hydrilla, typical)
1 | O=C(O)[C@@H]1[C@H](C(=O)O)[C@H]2CC[C@@H]1O2 [Endothall, 3,6-endoxohexahydrophthalic acid] | 309 ppb | 2.24b | 2.61ab | 2.72c | 2.14bc | 1.62b | 64% of control | 62% of control | 48% of control | 47% of control | 35% of control | reduced hydrilla biomass compared to untreated controls at all exposure periods, except 3 and 6-day | 520 ppb | essentially no hydrilla control | 2-6 weeks | less than 72 hours |  |  |  | 
2 | COCc1cnc(C2=NC(C)(C(C)C)C(=O)N2)c(C(=O)O)c1 (stereo not drawn) [Imazamox] |  |  |  |  |  |  |  |  |  |  |  |  | 680 ppb |  |  |  |  |  |  | 
3 | COc1cnc(OC)n2nc(NS(=O)(=O)c3c(OCC(F)F)cccc3C(F)(F)F)nc12 [Penoxsulam, 2-(2,2-difluoroethoxy)-6-trifluoromethyl-N-(5,8-dimethoxy[1,2,4]triazolo[1,5c]pyrimidin-2-yl)benzenesulfonamide] | 12 ppb | 4.01a | 3.97a | 3.68ab | 3.24ab | 2.41ab | 115% of control | 95% of control | 97% of control | 72% of control | 52% of control | not significantly different from untreated controls |  |  |  |  | no control was observed | Approximately 90% | slight but expected penoxsulam injury | about 60 days
